Values quoted from earlier work in patent US7510874B2, “Stable cell lines expressing HERG1a and HERG1b” (priority 2003, dated 2009).

Target: IKr currents (Homo sapiens, UniProt Q12809)
Settings: background statement with literature references

IKr currents, sequence (Q12809 whole entry): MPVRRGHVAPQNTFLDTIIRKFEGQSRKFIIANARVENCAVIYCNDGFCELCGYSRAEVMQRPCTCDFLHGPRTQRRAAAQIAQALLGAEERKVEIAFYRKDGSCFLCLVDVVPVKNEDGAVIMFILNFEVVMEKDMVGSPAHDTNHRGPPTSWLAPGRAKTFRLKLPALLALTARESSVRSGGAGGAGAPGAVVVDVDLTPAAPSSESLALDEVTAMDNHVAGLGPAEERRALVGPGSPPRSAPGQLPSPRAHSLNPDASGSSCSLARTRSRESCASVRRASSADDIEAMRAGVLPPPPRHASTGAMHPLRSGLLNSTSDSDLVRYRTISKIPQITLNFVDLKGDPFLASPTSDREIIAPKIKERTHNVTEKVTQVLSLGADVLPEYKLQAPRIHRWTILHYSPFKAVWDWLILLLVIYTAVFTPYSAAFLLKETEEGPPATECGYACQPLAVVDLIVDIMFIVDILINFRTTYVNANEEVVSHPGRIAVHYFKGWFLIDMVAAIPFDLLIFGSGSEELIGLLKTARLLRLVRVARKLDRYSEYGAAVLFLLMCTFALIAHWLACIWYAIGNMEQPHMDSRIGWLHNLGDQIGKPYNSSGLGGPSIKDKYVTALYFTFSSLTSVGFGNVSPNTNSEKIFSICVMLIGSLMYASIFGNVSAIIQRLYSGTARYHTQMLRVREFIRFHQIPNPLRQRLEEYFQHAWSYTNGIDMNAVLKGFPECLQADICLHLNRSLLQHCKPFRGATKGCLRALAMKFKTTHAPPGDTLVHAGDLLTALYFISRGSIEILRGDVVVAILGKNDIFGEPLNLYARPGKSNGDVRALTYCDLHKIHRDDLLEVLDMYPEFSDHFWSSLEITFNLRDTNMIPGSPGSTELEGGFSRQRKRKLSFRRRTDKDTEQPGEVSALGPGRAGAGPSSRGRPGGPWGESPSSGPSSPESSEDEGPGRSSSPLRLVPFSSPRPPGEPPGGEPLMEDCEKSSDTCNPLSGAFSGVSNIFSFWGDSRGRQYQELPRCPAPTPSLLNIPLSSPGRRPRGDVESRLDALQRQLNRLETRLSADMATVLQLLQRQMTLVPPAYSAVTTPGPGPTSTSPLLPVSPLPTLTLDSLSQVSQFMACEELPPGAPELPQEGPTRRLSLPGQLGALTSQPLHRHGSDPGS

## COc1cc(N)c(Cl)cc1C(=O)NC1CCN(CCCOc2ccc(F)cc2)CC1OC (stereo not shown) [cisapride]
  block of IKr currents (cause of acquired LQTS): block of IKr currents
